According to ChEMBL document CHEMBL4304811, “Development of a Water-Soluble Indolylmaleimide Derivative IM-93 Showing Dual Inhibition of Ferroptosis and NETosis” (ACS Med Chem Lett, 2019):
pIC50: −log10 of the molar value. The source made the active and inactive calls. The rule behind the calls is not given here.

Legend:
[1] = molecular target: Glycogen synthase kinase-3 beta (Homo sapiens) (UniProt P49841); test: Binding affinity to wild-type human full length GSK3B (M1 to T433 residues) expressed in mammalian expression system assessed as residual binding level at 10 uM by Kinomescan method relative to control
[2] = molecular target: Mitogen-activated protein kinase 7 (Homo sapiens) (UniProt Q13164); test: Binding affinity to wild-type human partial length ERK5 (M1 to A409 residues) expressed in bacterial expression system assessed as residual binding level at 10 uM by Kinomescan method relative to control
Mitogen-activated protein kinase 7 (Homo sapiens), sequence (Q13164 2-816 limits assumed): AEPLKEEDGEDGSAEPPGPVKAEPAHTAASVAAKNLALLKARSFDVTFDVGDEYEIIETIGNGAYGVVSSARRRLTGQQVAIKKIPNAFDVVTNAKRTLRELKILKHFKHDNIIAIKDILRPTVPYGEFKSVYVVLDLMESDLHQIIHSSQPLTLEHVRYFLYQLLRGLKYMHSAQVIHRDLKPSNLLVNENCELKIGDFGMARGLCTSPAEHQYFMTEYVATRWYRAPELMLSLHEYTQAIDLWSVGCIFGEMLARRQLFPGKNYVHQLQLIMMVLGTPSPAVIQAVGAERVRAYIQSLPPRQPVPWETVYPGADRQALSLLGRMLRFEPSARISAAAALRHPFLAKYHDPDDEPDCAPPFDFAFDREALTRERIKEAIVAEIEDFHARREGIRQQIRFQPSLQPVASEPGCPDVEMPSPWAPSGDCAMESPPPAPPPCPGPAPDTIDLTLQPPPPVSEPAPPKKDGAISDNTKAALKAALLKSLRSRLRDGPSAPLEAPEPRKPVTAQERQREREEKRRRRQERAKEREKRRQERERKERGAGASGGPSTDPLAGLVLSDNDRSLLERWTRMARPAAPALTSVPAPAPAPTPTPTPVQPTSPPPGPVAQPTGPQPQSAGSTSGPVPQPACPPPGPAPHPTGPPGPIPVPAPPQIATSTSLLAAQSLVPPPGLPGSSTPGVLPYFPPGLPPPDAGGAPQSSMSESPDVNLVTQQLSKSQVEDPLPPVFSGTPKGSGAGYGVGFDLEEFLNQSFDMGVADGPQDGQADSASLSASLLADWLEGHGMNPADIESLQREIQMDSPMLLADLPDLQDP

[3] = molecular target: Receptor tyrosine-protein kinase erbB-3 (Homo sapiens) (UniProt P21860); test: Binding affinity to wild-type human partial length ERBB3 (G684 to A987 residues) expressed in mammalian expression system assessed as residual binding level at 10 uM by Kinomescan method relative to control
Receptor tyrosine-protein kinase erbB-3 (Homo sapiens), sequence (P21860 whole entry, the tested form may be a part): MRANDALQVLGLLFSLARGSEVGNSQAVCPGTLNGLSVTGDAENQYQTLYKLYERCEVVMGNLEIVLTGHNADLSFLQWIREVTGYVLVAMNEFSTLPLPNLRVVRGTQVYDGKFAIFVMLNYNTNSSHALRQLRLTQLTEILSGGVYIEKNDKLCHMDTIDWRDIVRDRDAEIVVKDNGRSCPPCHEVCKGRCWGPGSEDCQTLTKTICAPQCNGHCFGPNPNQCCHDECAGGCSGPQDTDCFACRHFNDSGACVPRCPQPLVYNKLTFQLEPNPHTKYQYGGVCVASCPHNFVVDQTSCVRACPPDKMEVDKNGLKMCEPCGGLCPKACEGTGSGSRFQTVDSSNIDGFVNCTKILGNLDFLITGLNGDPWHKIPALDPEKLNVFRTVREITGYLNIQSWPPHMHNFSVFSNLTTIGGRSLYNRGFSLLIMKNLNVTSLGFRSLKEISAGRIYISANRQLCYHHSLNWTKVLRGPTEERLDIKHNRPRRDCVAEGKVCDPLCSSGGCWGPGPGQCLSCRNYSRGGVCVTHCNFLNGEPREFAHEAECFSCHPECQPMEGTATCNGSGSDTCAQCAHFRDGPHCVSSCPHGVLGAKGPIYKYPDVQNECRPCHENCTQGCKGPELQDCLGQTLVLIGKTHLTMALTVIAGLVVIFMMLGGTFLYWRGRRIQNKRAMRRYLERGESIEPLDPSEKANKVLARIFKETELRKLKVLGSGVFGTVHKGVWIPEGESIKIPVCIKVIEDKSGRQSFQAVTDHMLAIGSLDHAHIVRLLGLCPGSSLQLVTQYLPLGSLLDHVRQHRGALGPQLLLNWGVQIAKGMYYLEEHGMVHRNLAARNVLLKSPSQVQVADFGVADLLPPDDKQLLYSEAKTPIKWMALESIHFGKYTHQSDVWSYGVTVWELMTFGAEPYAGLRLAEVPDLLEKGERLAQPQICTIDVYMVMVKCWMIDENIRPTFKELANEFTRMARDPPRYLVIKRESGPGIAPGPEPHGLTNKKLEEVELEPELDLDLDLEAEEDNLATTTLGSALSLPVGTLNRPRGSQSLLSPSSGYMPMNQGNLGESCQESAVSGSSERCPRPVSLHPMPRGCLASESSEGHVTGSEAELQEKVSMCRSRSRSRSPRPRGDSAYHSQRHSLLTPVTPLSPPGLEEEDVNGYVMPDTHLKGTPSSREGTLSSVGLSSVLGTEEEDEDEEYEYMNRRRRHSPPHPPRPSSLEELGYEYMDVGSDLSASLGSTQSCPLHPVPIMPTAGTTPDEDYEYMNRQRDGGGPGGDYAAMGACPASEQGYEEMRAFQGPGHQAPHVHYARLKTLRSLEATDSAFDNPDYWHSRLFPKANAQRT

[4] = molecular target: Proto-oncogene tyrosine-protein kinase ROS (Homo sapiens) (UniProt P08922); test: Binding affinity to wild-type human partial length ROS1 (A1921 to N2240 residues) expressed in bacterial expression system assessed as residual binding level at 10 uM by Kinomescan method relative to control
[5] = molecular target: Serine/threonine-protein kinase Chk2 (Homo sapiens) (UniProt O96017); test: Binding affinity to wild-type human partial length CHEK2 (S253 to E574 residues) expressed in bacterial expression system assessed as residual binding level at 10 uM by Kinomescan method relative to control
[6] = system: Proto-oncogene tyrosine-protein kinase receptor Ret (Homo sapiens), P07949 [M918T]; test: Binding affinity to human partial length RET M918T mutant (E713 to D1014 residues) expressed in bacterial expression system assessed as residual binding level at 10 uM by Kinomescan method relative to control
Neutrophil = test: Inhibition of PMA-induced superoxide production in C57BL6 mouse neutrophils at 10 uM preincubated for 30 mins followed by PMA stimulation and measured after 30 mins by luminol-lucignenin based luminescence assay; assay type: functional, cell-based
[7] = molecular target: Serine/threonine-protein kinase 35 (Homo sapiens) (UniProt Q8TDR2); test: Binding affinity to wild-type human partial length STK35 (G182 to A534 residues) expressed in bacterial expression system assessed as residual binding level at 10 uM by Kinomescan method relative to control
NIH3T3 = test: Inhibition of TBHP-induced ferroptosis in mouse NIH/3T3 cells after 12 hrs by WST-8 assay; assay type: functional, cell-based; conditions: NIH3T3, 12 h
[8] = molecular target: Cyclin-dependent kinase 11B (Homo sapiens) (UniProt P21127); test: Binding affinity to wild-type human partial length CDC2L1 (P353 to G692 residues) expressed in bacterial expression system assessed as residual binding level at 10 uM by Kinomescan method relative to control
Cyclin-dependent kinase 11B (Homo sapiens), sequence (P21127 whole entry, the tested form may be a part): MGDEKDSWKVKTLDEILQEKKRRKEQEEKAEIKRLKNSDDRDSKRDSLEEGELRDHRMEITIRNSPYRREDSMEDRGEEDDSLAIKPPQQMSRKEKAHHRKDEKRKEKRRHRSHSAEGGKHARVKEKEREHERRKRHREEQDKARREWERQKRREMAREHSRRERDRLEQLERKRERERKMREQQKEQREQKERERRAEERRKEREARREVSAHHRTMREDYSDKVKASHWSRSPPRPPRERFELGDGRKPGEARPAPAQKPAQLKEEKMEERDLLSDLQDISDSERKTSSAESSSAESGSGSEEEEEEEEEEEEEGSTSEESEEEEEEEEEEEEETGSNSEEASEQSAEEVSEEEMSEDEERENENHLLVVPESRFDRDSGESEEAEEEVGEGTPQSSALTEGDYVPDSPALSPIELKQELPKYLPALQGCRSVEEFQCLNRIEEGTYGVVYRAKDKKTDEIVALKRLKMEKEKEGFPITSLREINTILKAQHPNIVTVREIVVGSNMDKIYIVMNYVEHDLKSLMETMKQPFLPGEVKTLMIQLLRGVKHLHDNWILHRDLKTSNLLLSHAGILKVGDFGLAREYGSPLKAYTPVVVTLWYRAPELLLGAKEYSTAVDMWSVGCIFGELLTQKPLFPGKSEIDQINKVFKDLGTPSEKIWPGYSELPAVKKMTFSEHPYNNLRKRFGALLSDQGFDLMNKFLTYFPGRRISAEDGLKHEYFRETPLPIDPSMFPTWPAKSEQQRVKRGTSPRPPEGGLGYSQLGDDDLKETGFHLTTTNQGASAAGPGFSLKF

[9] = molecular target: Protein kinase C eta type (Homo sapiens) (UniProt P24723); test: Binding affinity to wild-type human partial length PRKCH (S324 to P683 residues) expressed in bacterial expression system assessed as residual binding level at 10 uM by Kinomescan method relative to control
[10] = molecular target: Serine/threonine-protein kinase TBK1 (Homo sapiens) (UniProt Q9UHD2); test: Binding affinity to wild-type human full length TBK1 (M1 to L729 residues) expressed in mammalian expression system assessed as residual binding level at 10 uM by Kinomescan method relative to control
Serine/threonine-protein kinase TBK1 (Homo sapiens), sequence (Q9UHD2 whole entry, the tested form may be a part): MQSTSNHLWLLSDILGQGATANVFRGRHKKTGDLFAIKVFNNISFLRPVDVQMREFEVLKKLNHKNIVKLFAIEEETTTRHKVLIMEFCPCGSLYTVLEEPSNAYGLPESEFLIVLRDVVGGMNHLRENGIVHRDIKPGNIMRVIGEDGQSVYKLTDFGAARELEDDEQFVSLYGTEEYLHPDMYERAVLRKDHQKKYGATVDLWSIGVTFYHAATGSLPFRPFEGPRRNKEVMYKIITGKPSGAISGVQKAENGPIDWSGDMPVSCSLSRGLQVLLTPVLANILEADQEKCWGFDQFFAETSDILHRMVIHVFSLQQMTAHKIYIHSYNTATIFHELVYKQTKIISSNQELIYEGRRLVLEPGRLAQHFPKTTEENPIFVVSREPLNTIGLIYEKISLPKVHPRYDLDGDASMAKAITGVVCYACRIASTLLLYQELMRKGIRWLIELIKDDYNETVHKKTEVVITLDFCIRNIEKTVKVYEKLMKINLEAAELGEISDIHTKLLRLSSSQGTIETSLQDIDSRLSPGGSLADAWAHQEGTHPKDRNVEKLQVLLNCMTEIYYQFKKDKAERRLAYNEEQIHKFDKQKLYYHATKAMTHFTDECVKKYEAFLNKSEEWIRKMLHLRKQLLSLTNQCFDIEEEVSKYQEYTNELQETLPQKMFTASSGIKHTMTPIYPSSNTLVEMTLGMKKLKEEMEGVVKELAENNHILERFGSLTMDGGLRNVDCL

[11] = molecular target: Tyrosine-protein kinase Fgr (Homo sapiens) (UniProt P09769); test: Binding affinity to wild-type human partial length FGR (L233 to T529 residues) expressed in bacterial expression system assessed as residual binding level at 10 uM by Kinomescan method relative to control
[12] = molecular target: Mitogen-activated protein kinase 15 (Homo sapiens) (UniProt Q8TD08); test: Binding affinity to wild-type human partial length ERK8 (M1 to P437 residues) expressed in bacterial expression system assessed as residual binding level at 10 uM by Kinomescan method relative to control
[13] = molecular target: Cyclin-dependent kinase 14 (Homo sapiens) (UniProt O94921); test: Binding affinity to wild-type human full length PFTK1 (M1 to H451 residues) expressed in bacterial expression system assessed as residual binding level at 10 uM by Kinomescan method relative to control
[14] = molecular target: Serine/threonine-protein kinase Nek6 (Homo sapiens) (UniProt Q9HC98); test: Binding affinity to wild-type human full length NEK6 (M8 to T313 residues) expressed in bacterial expression system assessed as residual binding level at 10 uM by Kinomescan method relative to control
Serine/threonine-protein kinase Nek6 (Homo sapiens), sequence (Q9HC98 whole entry, the tested form may be a part): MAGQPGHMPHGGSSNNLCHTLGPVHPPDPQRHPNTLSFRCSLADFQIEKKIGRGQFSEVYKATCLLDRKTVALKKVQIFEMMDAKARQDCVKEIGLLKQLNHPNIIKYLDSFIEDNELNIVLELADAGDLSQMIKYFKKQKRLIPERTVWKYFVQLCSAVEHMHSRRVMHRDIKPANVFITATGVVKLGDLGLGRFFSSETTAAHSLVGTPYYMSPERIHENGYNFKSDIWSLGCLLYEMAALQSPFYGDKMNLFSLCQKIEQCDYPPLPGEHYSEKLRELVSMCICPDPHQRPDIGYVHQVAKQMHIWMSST

[15] = system: Receptor-type tyrosine-protein kinase FLT3 (Homo sapiens), P36888 [UNDEFINED MUTATION]; test: Binding affinity to human partial length FLT3 ITD mutant expressed in bacterial expression system assessed as residual binding level at 10 uM by Kinomescan method relative to control
Receptor-type tyrosine-protein kinase FLT3 (Homo sapiens), P36888 [UNDEFINED MUTATION], sequence (P36888 whole entry, looked up, change not shown, the tested form may be a part): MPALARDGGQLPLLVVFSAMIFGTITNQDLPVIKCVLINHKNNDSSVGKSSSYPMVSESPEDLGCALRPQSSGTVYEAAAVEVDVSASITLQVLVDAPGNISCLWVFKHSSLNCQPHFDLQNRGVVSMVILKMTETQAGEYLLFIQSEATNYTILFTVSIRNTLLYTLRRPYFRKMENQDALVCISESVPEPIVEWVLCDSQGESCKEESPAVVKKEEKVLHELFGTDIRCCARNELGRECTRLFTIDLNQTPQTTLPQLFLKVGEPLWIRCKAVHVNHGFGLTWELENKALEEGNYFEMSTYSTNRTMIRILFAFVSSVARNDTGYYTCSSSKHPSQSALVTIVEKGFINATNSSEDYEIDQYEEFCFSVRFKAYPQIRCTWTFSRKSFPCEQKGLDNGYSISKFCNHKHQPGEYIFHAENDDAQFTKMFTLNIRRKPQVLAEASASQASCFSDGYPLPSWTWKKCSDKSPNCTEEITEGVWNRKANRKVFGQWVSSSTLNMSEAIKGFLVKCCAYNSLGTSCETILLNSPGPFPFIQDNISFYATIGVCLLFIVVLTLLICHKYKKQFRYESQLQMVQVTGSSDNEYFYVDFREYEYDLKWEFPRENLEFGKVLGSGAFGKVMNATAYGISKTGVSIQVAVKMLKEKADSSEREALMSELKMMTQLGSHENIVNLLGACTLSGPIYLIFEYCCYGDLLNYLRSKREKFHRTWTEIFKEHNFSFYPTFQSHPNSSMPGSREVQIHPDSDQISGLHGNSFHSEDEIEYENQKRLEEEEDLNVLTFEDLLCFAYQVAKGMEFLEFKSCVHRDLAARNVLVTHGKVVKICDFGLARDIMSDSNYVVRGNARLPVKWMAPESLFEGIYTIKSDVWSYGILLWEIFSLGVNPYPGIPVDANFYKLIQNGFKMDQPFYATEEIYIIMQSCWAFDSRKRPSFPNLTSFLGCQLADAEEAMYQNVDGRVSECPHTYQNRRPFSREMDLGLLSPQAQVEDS

[16] = molecular target: Tyrosine-protein kinase Blk (Homo sapiens) (UniProt P51451); test: Binding affinity to wild-type human partial length BLK (G211 to L503 residues) expressed in bacterial expression system assessed as residual binding level at 10 uM by Kinomescan method relative to control
[17] = molecular target: Phosphatidylinositol 4,5-bisphosphate 3-kinase catalytic subunit delta isoform (Homo sapiens) (UniProt O00329); test: Binding affinity to wild-type human partial length PIK3CD (R108 to Q1044 residues) expressed in mammalian expression system assessed as residual binding level at 10 uM by Kinomescan method relative to control
[18] = molecular target: cGMP-dependent protein kinase 1 (Homo sapiens) (UniProt Q13976); test: Binding affinity to wild-type human partial length PRKG1 (L339 to F686 residues) expressed in bacterial expression system assessed as residual binding level at 10 uM by Kinomescan method relative to control
[19] = system: Phosphatidylinositol 4,5-bisphosphate 3-kinase catalytic subunit alpha isoform (Homo sapiens), P42336 [C420R]; test: Binding affinity to human partial length PIK3CA C420R mutant (R108 to N1068 residues) expressed in mammalian expression system assessed as residual binding level at 10 uM by Kinomescan method relative to control
[20] = molecular target: Mitogen-activated protein kinase kinase kinase 6 (Homo sapiens) (UniProt O95382); test: Binding affinity to wild-type human partial length ASK2 (M278 to R972 residues) expressed in mammalian expression system assessed as residual binding level at 10 uM by Kinomescan method relative to control
[21] = molecular target: Dual specificity mitogen-activated protein kinase kinase 5 (Homo sapiens) (UniProt Q13163); test: Binding affinity to wild-type human partial length MEK5 (L98 to P448 residues) expressed in mammalian expression system assessed as residual binding level at 10 uM by Kinomescan method relative to control
[22] = molecular target: Serine/threonine-protein kinase NIM1 (Homo sapiens) (UniProt Q8IY84); test: Binding affinity to wild-type human partial length NIM1 (Q44 to N355 residues) expressed in mammalian expression system assessed as residual binding level at 10 uM by Kinomescan method relative to control
[23] = molecular target: Serine/threonine-protein kinase Nek1 (Homo sapiens) (UniProt Q96PY6); test: Binding affinity to wild-type human partial length NEK1 (M1 to K278 residues) expressed in bacterial expression system assessed as residual binding level at 10 uM by Kinomescan method relative to control

Compound `CC(C)N1C(=O)C(NCCCN(C)C)=C(c2cn(C)c3ccccc23)C1=O.Cl` has an Activity [1] of 84%, an Activity [2] of 100% and an Activity [3] of 93%. The Activity [4] was 87%, the Activity [5] was 80% and the Activity [6] was 86%. The inhibition (Neutrophil) was “inactive”, the Activity [7] was 100% and the pIC50 (NIH3T3) was 5.74. It also gave an Activity [8] of 96%, an Activity [9] of 99% and an Activity [10] of 73%. For the same compound, the Activity [11] was 82%, the Activity [12] was 95% and the Activity [13] was 100%. The Activity [14] was 100%, the Activity [15] was 82% and the Activity [16] was 98%. For the same compound, the Activity [17] was 78%, the Activity [18] was 91% and the Activity [19] was 75%. The Activity [20] was 98%, the Activity [21] was 77% and the Activity [22] was 90%. The Activity [23] was 100%.
